According to patent publication US20200291391A1, “CROSS-LINKED EPITOPES AND METHODS OF USE THEREOF” (Indi Molecular, Inc., priority 2019, published 2020):
Entries after “also recorded” stand apart in the source; their conditions may differ. Where a SMILES comes first, the peptide text is derived from it. Bridges are numbered along the chain shown (N, C = ends). Triazole bridges read from a SMILES are 1,4-linked. Where no end group is shown, it is not given here. [ ]: non-standard residue; d: D form. Lys(N3) = [N-]=[N+]=NCCCC[C@H](N)C(=O)O; Pra = C#CC[C@H](N)C(=O)O

Columns and labels:
CD8+SupT1 cells = experiment: Flow cytometry binding to CD8+ cells; assay type: cell-based; settings: for selective binding to CD8+ cells in flow cytometry: SupT1 (CD8+) vs Jurkat (CD8-) cells, FIG. 11; for binding to CD8+SupT1 cells by flow cytometry: with the 1kPEG linker
Protocol: (§1) Three hits were left after this screening (Table 3). These hits were assessed in solid phase ELISA and in flow cytometry experiments.
(§2) Binding of krsah (SEQ ID NO:27) was detected on both CD8+SupT1 cells and CD8−Jurkat cells. The mean fluorescence intensity ratio to each of the ligands tfpkk (SEQ ID NO:21), krsah (SEQ ID NO:27), and snprk (SEQ ID NO:28) was determined (Table 4). The mean fluorescence intensity ratio of different amounts of the ligand tfpkk (SEQ ID NO:21) was determined (Table 5).
(§3) Binding of Biotin-1kPEG-tfpkk (SEQ ID NO:21) to CD8+SupT1 cells or CD8−Jurkat was performed at room temperature (RT) or 4° C.
(§4) Concentration of biotin-1kPEG-tfpkk (SEQ ID NO:21) and -nfyrr (SEQ ID NO:32) was titrated on SupT1 and Jurkat cells. The biotin-1kPEG-ligands were incubated with CD8+SupT1 cells and CD8−Jurkat cells at a concentrations of […].

CD8−Jurkat cells = experiment: Flow cytometry binding to CD8- cells; assay type: cell-based; settings: with the 1kPEG linker
Protocol: as §1, §2, §3, §4

epitope B2 = biological target: T1, epitope B2 (Homo sapiens, UniProt P01732, L47X); experiment: Epitope bound by ligand; assay type: binding
T1 construct: host or cells: synthetic peptide (per the listing)
Protocol: Epitope B2 ligand tfpkk (SEQ ID NO:21) and the three hit ligands selected against CD8 epitopes A2, B2, H, and J were tested for binding to CD8+ and CD8− cells by flow cytometry.

[1] = biological target: T2, CD8 epitopes A, B, C, D, and E (Homo sapiens, UniProt P01732, M123X); experiment: Bead-coupled alkyne peptide screened with azide- and biotin-containing epitopes, alkaline phosphatase-streptavidin development; assay type: binding; settings: D, and E tested
T2 construct: host or cells: synthetic peptide (per the listing)
Protocol: The epitope E ligand used in the biligand is tfpkk (SEQ ID NO:21). It was determined that tfpkk (SEQ ID NO:21) binds to epitope E by screening an alkyne-containing tfpkk peptide (SEQ ID NO:21) coupled to a bead (FIG. 8) with azide- and biotin-containing epitopes A, B, C, D, and E (FIG. 9). The epitopes used in the screen were: Epitope A (a.a. 1-10): Biotin-PEG3-[Az4]-SQFRVSPLDR (SEQ ID NO:22); Epitope B (a.a. 24-32): Biotin-PEG3-[Az4]-VLLSNPTSG (SEQ ID NO:23); Epitope C (a.a. 58-77): Biotin-PEG3-KAAEGLDTQ-[Az4]-FSGKRLGDTF (SEQ ID NO:24); Epitope D (a.a. 68-83): Biotin-PEG3-FSGKRL-[Az4]-DTFVLTLSD (SEQ ID NO:25); Epitope E (a.a. 95-110): Biotin-PEG3-SALSNSI-[Az4]-YFSHFVPV (SEQ ID NO:26).
This is in agreement with docking calculations of binding affinities of the epitopes to tfpkk (SEQ ID NO:21) and a control peptide (krsah; SEQ ID NO:27) (Table 2).

## herlk: CD8 ligand hit of four epitope cocktail screening ([dH][dE][dR][dL][dK])
CD8+SupT1 cells
  selective binding to CD8+ cells in flow cytometry: weakly selective binding to CD8+ cells

## krsah: CD8 ligand hit; control peptide in docking ([dK][dR][dS][dA][dH])
CD8+SupT1 cells
  binding to CD8+SupT1 cells by flow cytometry: can be detected
CD8−Jurkat cells
  binding to CD8−Jurkat cells by flow cytometry: detected; also recorded: also observed

## nsprw: CD8 ligand hit of four epitope cocktail screening ([dN][dS][dP][dR][dW])
CD8+SupT1 cells
  selective binding to CD8+ cells in flow cytometry: weak (and weakly selective) binding to CD8+ cells

## C[C@H](O)[C@H]1NC(=O)[C@@H](Cc2ccc(O)cc2)NC(=O)[C@@H](Cc2c[nH]cn2)NC(=O)[C@@H](CCCCN)NC(=O)[C@@H](N)Cc2cn(nn2)CCCC[C@@H](C(N)=O)NC(=O)[C@@H](CC(N)=O)NC1=O [khytn] (H-[Pra][dK][dH][dY][dT][dN][Lys(N3)]-NH2; triazole 1-7; N-terminus assumed)
Epitope B2
  epitope bound: bind to epitope B2

## tfpkk: CD8 ligand peptide; epitope E ligand used in the biligand ([dT][dF][dP][dK][dK])
CD8+SupT1 cells
  binding to CD8+SupT1 cells by flow cytometry: observed
CD8−Jurkat cells
  binding to CD8−Jurkat cells by flow cytometry: little binding
[1]
  color development of beads with alkaline phosphatase-linked streptavidin: color only when epitope E was used
Epitope B2
  epitope bound: bind to epitope B2
